In ChEMBL document CHEMBL1201862, “PubChem BioAssay data set” (2004):
One block for each compound: values may come before it. The source made the active and inactive calls.

Legend:
[1] = biological target: T1, Peroxisome proliferator-activated receptor gamma (Homo sapiens, UniProt P37231); assay: PPARg ligand-binding domain binders, dose response, PPARg partial agonist project, biochemical, fluorescence polarization, PolarScreen (AID 504453)
T1 sequence (P37231 whole entry): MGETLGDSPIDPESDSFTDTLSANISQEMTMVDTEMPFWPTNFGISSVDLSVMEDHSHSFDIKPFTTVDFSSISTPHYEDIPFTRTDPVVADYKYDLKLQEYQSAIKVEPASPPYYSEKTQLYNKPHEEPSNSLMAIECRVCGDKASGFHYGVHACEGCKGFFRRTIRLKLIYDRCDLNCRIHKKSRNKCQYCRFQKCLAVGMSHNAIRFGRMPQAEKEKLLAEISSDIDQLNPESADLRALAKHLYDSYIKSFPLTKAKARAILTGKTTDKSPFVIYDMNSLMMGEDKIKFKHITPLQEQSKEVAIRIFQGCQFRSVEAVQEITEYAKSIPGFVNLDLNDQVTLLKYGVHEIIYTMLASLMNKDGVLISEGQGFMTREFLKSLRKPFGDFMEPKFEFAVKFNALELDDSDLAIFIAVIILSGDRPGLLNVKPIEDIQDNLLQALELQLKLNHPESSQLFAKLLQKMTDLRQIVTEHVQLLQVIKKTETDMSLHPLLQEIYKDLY

[2] = biological target: T1, Peroxisome proliferator-activated receptor gamma; assay: PPARg ligand-binding domain binders, dose response, PPARg partial agonist project, biochemical, TR-FRET, LanthaScreen (AID 504446)
[3] = biological target: T1, Peroxisome proliferator-activated receptor gamma; assay: PPARg partial agonists, dose response, cell-based, luminescence, assay provider (AID 504447); assay type: functional
[4] = biological target: G-protein coupled receptor 55 (Homo sapiens, UniProt Q9Y2T6); assay: GPR55 antagonists blocking LPI-driven arrestin recruitment, primary screen, imaging, U2OS, beta-arrestin-GFP, LPI agonist (AID 2013); assay type: functional;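 also: antagonist potency measured as reduced agonist-driven arrestin aggregation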
Sequence of G-protein coupled receptor 55 (Q9Y2T6 whole entry): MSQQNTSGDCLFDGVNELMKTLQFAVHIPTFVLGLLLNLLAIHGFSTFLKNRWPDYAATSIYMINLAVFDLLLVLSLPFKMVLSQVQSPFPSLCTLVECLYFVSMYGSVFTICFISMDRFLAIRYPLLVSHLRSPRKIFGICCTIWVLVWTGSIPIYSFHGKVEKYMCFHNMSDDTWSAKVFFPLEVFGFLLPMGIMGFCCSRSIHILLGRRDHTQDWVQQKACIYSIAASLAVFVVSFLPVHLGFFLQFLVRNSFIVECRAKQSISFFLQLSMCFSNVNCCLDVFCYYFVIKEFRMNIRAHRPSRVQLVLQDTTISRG

[5] = biological target: T2, Ubiquitin-conjugating enzyme E2 N (Homo sapiens, UniProt P61088); assay type: functional
T2 sequence (P61088 whole entry): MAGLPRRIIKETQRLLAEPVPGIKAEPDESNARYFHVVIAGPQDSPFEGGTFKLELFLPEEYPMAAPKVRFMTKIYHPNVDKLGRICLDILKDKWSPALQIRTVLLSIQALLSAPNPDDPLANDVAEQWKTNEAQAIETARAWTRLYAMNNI

[6] = biological target: T2, Ubiquitin-conjugating enzyme E2 N; assay type: functional; remark: listed apart in the source
Bcl-2-related protein A1 = biological target: T3, Bcl-2-related protein A1 (Mus musculus, UniProt Q07440); assay type: functional;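 also: confirmatory dose–response counterscreen on Bfl-1, used to check hits from a UBC13 polyubiquitin inhibitor campaign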
T3 sequence (Q07440 whole entry): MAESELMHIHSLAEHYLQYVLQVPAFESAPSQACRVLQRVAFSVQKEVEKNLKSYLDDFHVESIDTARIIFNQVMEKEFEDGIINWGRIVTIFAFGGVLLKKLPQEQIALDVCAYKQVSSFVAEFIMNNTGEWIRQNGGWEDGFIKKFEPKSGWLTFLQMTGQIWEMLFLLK

[7] = biological target: T4, Delta-type opioid receptor (Homo sapiens, UniProt P41143); assay: HTS Image-Based Screen for Antagonists of the DOR Receptor. [Related pubchem assays (depositor defined):AID1777, AID1785, AID1786, AID2133]; assay type: functional
T4 sequence (P41143 whole entry): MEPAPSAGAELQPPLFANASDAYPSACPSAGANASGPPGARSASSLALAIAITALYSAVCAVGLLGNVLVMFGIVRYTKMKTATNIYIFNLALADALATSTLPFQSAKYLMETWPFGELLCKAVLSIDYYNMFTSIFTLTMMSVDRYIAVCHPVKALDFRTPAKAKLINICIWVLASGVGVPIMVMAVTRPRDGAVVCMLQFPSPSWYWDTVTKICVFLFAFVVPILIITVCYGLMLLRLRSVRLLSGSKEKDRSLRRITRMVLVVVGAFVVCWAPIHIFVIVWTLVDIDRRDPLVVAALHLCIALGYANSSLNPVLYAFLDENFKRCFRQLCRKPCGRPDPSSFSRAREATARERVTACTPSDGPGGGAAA

[8] = biological target: T5, Neuropeptides B/W receptor type 1 (Homo sapiens, UniProt P48145); assay: Fluorescence-based dose response cell-based high throughput screening assay to identify antagonists of the G-protein coupled receptor 7 (GPR7). [Related pubchem assays: 1952 (Screening assay (GPR7 antagonists).), 1880 (Summary AID.)]; assay type: functional
T5 sequence (P48145 whole entry): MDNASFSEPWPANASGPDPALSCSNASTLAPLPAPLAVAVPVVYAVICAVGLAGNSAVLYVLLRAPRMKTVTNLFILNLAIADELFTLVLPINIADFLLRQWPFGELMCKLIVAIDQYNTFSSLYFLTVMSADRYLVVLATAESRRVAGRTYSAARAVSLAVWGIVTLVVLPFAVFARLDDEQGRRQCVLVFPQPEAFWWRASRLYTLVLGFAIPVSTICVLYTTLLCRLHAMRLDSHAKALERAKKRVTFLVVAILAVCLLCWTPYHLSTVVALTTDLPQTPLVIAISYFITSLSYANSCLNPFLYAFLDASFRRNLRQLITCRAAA

Mu-type opioid receptor = Mu-type opioid receptor (Homo sapiens, UniProt P35372); assay: HTS Image-Based Screen for Agonists of the MOR Receptor. [Related pubchem assays (depositor defined):AID1777, AID1785, AID1786, AID2133]; assay type: functional;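 also: imaging of beta-arrestin GFP recruitment into spots after receptor activation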
Sequence of Mu-type opioid receptor (P35372 whole entry): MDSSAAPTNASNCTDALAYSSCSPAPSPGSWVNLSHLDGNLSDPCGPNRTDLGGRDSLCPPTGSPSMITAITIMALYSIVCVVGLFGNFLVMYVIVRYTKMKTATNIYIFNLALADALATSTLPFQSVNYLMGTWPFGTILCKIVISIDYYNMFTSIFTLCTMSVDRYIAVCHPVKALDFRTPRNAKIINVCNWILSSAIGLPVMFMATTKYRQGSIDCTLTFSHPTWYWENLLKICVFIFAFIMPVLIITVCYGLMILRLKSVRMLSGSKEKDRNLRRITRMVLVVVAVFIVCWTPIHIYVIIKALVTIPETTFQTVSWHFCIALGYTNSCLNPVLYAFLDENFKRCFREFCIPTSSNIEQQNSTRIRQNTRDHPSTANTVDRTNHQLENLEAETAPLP

[9] = biological target: T6, Kappa-type opioid receptor (Homo sapiens, UniProt P41145); assay type: functional
T6 sequence (P41145 whole entry): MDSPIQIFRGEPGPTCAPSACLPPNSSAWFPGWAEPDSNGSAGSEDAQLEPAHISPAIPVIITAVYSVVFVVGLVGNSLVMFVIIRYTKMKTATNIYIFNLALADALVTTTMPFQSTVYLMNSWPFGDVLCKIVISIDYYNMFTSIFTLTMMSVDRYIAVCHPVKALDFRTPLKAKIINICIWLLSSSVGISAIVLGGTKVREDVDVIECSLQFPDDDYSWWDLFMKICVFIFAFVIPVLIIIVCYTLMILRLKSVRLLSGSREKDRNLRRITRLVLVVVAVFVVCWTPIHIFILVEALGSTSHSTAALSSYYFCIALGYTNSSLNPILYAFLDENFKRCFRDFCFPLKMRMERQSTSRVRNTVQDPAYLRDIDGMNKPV

[10] = biological target: T7, Heat shock factor protein 1 (Mus musculus, UniProt P38532); assay: HSF1 potentiators in luciferase reporter cells, confirmation, cell-based, NIH3T3, luminescence, dose retest (AID 435004); assay type: functional;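 also: stress induced by proteasome inhibitor MG132 added 30 min after compound; luciferase reporter driven by HSF1 response element in NIH3T3 cells; actives raise luminescence as potentiators of the MG132 stress response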
T7 sequence (P38532 whole entry): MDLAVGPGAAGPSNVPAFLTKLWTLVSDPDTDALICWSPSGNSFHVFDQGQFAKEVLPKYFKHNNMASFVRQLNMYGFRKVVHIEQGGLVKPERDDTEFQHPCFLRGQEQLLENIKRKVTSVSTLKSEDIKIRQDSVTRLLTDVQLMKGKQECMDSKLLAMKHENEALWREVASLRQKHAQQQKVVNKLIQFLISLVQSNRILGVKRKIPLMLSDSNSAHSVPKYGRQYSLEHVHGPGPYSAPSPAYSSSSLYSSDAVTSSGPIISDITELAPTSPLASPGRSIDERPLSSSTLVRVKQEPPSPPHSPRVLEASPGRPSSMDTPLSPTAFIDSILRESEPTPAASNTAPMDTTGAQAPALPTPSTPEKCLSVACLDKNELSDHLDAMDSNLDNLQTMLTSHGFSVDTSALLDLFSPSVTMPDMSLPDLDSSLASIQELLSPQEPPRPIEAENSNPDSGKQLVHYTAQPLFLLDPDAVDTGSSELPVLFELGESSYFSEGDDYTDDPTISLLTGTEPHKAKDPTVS

[11] = biological target: T6, Kappa-type opioid receptor; assay type: functional; remark: listed apart in the source
[12] = biological target: T4, Delta-type opioid receptor; assay: HTS Image-Based Screen for Agonists of the DOR Receptor. [Related pubchem assays (depositor defined):AID1777, AID1786, AID2133]; assay type: functional
[13] = biological target: Melanin-concentrating hormone receptor 1 (Homo sapiens, UniProt Q99705); assay: Fluorescence-based counterscreen for antagonists of the G-protein coupled receptor 7 (GPR7): cell-based high throughput dose response assay to identify antagonists of the melanin-concentrating hormone receptor 1 (MCHR1).; assay type: functional
Sequence of Melanin-concentrating hormone receptor 1 (Q99705 whole entry): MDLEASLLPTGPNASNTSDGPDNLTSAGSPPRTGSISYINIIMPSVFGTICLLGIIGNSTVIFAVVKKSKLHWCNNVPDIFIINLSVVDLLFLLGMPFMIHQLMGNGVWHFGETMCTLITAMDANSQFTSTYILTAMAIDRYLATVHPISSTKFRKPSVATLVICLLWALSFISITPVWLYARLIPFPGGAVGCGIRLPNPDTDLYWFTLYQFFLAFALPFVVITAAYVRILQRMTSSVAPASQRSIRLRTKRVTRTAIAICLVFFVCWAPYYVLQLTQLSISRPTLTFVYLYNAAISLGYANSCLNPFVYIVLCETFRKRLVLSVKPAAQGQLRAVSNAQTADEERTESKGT

[14] = biological target: E3 ubiquitin-protein ligase XIAP (Homo sapiens, UniProt P98170); assay: Counter Screen using XIAP-Bir3 for Chemical Antagonists of Bir1/2 domains of IAP-family anti-apoptotic proteins. [Related pubchem assays (depositor defined):AID1018, AID1449, AID1514, AID1638, AID1749, AID1750, AID488957, AID488963]
Sequence of E3 ubiquitin-protein ligase XIAP (P98170 whole entry): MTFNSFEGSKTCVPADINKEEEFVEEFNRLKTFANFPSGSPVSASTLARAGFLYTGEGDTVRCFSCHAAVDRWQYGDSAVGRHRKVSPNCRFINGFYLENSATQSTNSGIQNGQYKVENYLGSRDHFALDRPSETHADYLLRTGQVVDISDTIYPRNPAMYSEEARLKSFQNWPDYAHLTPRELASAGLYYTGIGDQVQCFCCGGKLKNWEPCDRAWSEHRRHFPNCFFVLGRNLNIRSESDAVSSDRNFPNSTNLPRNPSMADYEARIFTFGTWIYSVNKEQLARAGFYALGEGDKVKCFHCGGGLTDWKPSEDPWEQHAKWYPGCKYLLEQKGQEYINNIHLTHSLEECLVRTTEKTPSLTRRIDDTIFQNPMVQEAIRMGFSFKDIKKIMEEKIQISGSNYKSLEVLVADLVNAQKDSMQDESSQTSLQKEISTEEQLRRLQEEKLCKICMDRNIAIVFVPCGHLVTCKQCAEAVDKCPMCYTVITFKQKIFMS

Coagulation factor XII = Coagulation factor XII (Homo sapiens, UniProt P00748); assay type: functional;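 also: activated factor XIIa alpha cleaving a fluorogenic AMC peptide substrate; inhibitor potency from loss of enzyme activity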
Sequence of Coagulation factor XII (P00748 20-372 limits assumed): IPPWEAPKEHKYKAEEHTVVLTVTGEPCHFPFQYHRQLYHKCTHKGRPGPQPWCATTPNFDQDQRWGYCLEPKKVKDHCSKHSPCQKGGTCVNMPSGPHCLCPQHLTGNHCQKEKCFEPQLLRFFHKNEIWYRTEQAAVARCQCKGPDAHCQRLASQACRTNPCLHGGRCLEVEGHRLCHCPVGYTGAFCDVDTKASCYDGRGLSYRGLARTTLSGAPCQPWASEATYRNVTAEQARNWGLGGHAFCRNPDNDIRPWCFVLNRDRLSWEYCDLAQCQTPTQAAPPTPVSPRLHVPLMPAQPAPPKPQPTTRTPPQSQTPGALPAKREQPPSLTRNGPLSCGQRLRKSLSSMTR
Sequence of Coagulation factor XII (P00748 373-615 limits assumed): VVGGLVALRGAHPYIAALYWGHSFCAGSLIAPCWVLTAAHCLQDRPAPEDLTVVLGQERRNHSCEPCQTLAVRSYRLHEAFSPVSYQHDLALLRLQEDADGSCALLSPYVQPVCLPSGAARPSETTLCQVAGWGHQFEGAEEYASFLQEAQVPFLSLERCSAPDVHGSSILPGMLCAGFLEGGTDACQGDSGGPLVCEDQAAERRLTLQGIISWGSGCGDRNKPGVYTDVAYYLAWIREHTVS

Compound: O=C(c1ccccn1)N(Cc1ccco1)C1(C(=O)NC2CCCC2)CCCCC1
IC50 [7]: > 32 µM (inactive)
IC50 [8]: > 43.8 µM (not active)
EC50 (Mu-type opioid receptor): > 32 µM (inactive)
EC50 [9]: 14.6 µM
EC50 [10]: > 260 µM (inactive)
EC50 [11]: 12.3 µM
EC50 [12]: > 32 µM (inactive)
IC50 [13]: > 43.8 µM (not active)

Compound: O=C(Nc1ccc(Br)cc1)c1ccc(N2C(=O)C3CC=CCC3C2=O)cc1 (configuration not stated)
IC50 [14]: > 20 µM (inactive)

Compound: Cc1ccc(S(=O)(=O)CCN2C=CC(C(F)(F)F)=NCC2)cc1
IC50 (Coagulation factor XII): > 50 µM (inactive)

Second part, the compound after the results:

IC50 [1]: 0.173 µM (active)
IC50 [2]: 0.6 µM (active)
EC50 [3]: 0.181 µM (active)
Compound: CCn1cnc2c1c(=O)n(Cc1cccc([N+](=O)[O-])c1)c(=O)n2Cc1ccccc1

IC50 [4]: 2.55 µM (active)
Compound: C[C@H](NC(=O)c1nc[nH]c1C(=O)Nc1ccc(CNC(=O)OC(C)(C)C)cc1)C(=O)OC(C)(C)C

IC50 [5]: 8.6 µM (active)
IC50 [6]: 5.96 µM (active)
IC50 (Bcl-2-related protein A1): > 20 µM (inactive)
Compound: CCCCN=C(S)N=Nc1c(O)[nH]c2ccccc12
